The test system of one assay is HT-29. Briefly: Growth inhibition of human HT-29 cells. It counts as functional, cell-based.
The next assay has as its system NCI-N87. Briefly: Growth inhibition of human NCI-N87 cells. It is filed as functional, cell-based.
In another assay the test system is MDA-MB-361. Briefly: Growth inhibition of human MDA-MB-361 cells. It counts as functional, cell-based.
A further assay relates to HeLa. Briefly: Mitotic arrest in human HeLa cells assessed as accumulation at […] at 0.98 to 30 uM using pHH3 staining-based fluorescent assay. It is filed as functional, cell-based.
For assay [1], the target named is T1, Threonine--tRNA ligase, mitochondrial (Homo sapiens) (UniProt Q9BW92).
T1 sequence (whole entry): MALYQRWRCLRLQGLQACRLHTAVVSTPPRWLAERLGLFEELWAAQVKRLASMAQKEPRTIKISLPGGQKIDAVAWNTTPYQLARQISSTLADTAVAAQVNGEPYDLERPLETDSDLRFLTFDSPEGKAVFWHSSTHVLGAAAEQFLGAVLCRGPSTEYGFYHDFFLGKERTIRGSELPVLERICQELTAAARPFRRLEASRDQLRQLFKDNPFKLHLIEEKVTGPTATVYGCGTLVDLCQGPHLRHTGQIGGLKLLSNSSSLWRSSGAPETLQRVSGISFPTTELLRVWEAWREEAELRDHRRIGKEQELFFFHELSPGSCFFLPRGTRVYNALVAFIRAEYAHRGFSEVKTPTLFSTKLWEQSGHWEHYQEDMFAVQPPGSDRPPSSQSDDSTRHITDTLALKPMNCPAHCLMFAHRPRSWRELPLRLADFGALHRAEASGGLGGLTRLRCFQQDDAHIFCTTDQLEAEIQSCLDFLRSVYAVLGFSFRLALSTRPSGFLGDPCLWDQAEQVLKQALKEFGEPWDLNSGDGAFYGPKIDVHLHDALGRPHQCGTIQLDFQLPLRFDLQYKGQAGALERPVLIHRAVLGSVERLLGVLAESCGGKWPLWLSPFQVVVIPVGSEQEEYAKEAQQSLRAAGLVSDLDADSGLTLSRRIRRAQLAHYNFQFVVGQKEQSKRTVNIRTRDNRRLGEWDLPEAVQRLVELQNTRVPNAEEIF
Briefly: Inhibition of threonyl tRNA synthetase (unknown origin) assessed as depletion of tRNAs at 50 uM by SToPs assay.

The source made the active and inactive calls. The rule behind the calls is not given here.

As a reminder, the IC50 is the concentration that inhibits the measured activity by half. Read a high IC50 as weaker potency in that assay.

As to `C[C@@H]1C[C@H](C)C[C@H](C)[C@@H](O)CC(=O)O[C@H]([C@@H]2CCC[C@H]2C(=O)O)C/C=C/C=C(/C#N)[C@H](O)[C@@H](C)C1` [BORRELIDIN], the figures for the IC50 in the assay with HT-29, with NCI-N87 and in the assay on MDA-MB-361 were 920 nM, 50 nM and 420 nM, respectively.

Turning to `C[C@@H]1C[C@H](C)C[C@H](C)[C@@H](O)CC(=O)O[C@H]([C@@H]2CCC[C@H]2C(=O)O)C/C=C/C=C(/CN)[C@H](O)[C@@H](C)C1`, the Activity result in the assay on HeLa was “Dose-dependent effect”. Also, the half-inhibitory concentration (IC50) in the assay on HT-29 stood at 2000 nM; with NCI-N87, 1300 nM; in the assay on MDA-MB-361, 2200 nM. Besides, the inhibition entry in assay [1] is “Active”.

Consider `CC(=O)NC/C1=C/C=C/C[C@@H]([C@@H]2CCC[C@H]2C(=O)O)OC(=O)C[C@H](O)[C@@H](C)C[C@@H](C)C[C@@H](C)C[C@H](C)[C@H]1O`, for which the outcome with HeLa was inactive. In addition, the inhibition entry in assay [1] is “inactive”.

For the origin of these results see ChEMBL document CHEMBL3352183, “Borrelidin B: isolation, biological activity, and implications for nitrile biosynthesis” (J Nat Prod, 2014).
